According to ChEMBL document CHEMBL4190400, “Identification of Potent Ebola Virus Entry Inhibitors with Suitable Properties for in Vivo Studies” (J Med Chem, 2018):
pIC50: −log10 of the molar value. In brackets after ≈: the same amount, converted by molar mass.

Experiments:
Ebolavirus [1] = test: Antiviral activity against VSV pseudotyped Ebolavirus expressing M-GFP infected in African green monkey Vero E6 cells assessed as inhibition of viral infection pre-incubated for 2 hrs before infection and measured after 8 to 12 hrs by fluorescence microscopic method; assay type: functional, Vero C1008
[2] = Half life in mouse liver microsomes at 1 uM after 60 mins in presence of NADPH and ritonavir by LC-MS/MS analysis; assay type: ADME, microsome; settings: with ritonavir (concentration not stated)
Ebolavirus [3] = test: Antiviral activity against recombinant VSV pseudotyped Ebolavirus expressing M-GFP infected in African green monkey Vero E6 cells assessed as inhibition of viral infection pre-incubated for 2 hrs before infection and measured after 8 to 12 hrs in presence of 50% NHS by fluorescence microscopic method; assay type: functional, Vero C1008; settings: Orthoebolavirus, Vero C1008
[4] = Stability of the compound in mouse plasma at 10 uM assessed as compound remaining after 4 hrs by LC-MS/MS analysis; assay type: ADME, cell-free; settings: read-out: Stability
physchem = settings: phosphate buffered saline, pH 7.4
in vitro = settings: mouse, plasma
[5] = Half life in mouse liver microsomes at 1 uM after 60 mins in presence of NADPH by LC-MS/MS analysis; assay type: ADME, microsome
[6] = AUClast in mouse at 50 mg/kg, po administered via gavage cotreated with 50 mg/kg ritonavir; assay type: ADME, organism-based; set-up: dose 50 mg/kg, route oral, time 0 - last; settings: in vivo
[7] = Cmax in mouse at 50 mg/kg, po administered via gavage cotreated with 50 mg/kg ritonavir; assay type: ADME, organism-based; set-up: dose 50 mg/kg, route oral; settings: in vivo
[8] = Tmax in mouse at 50 mg/kg, po administered via gavage cotreated with 50 mg/kg ritonavir; assay type: ADME, organism-based; settings: in vivo
[9] = Concentration in mouse plasma at 50 mg/kg, po administered via gavage cotreated with 50 mg/kg ritonavir; assay type: ADME, organism-based; settings: in vivo
[10] = Half life in human liver microsomes at 1 uM after 60 mins in presence of NADPH by LC-MS/MS analysis; assay type: ADME, microsome
[11] = Half life in mouse at 50 mg/kg, po administered via gavage cotreated with 50 mg/kg ritonavir; assay type: ADME, organism-based; settings: in vivo
[12] = Clearance in mouse at 50 mg/kg, po administered via gavage cotreated with 50 mg/kg ritonavir; assay type: ADME, organism-based; settings: in vivo

SMILES: O=C(CC1CCC(F)(F)CC1)NCC(=O)N1CCN(Cc2cc(Cl)cc(Cl)c2O)CC1
- pIC50 (Ebolavirus [1]; Orthoebolavirus, Vero C1008): 5.44

SMILES: COC(=O)c1ccc(COc2ccc(OC)cc2CN2CCN(C(=O)CNC(=O)CC34CC5CC(CC(C5)C3)C4)CC2)cc1
- pIC50 (Ebolavirus [1]; Orthoebolavirus, Vero C1008): 5.85

SMILES: O=C(CC1CCC(F)(F)CC1)NCC(=O)N1CCN(Cc2cc(Cl)ccc2NS(=O)(=O)C2CC2)CC1
- pIC50 (Ebolavirus [1]; Orthoebolavirus, Vero C1008): 5.66

SMILES: COC(=O)c1ccc(COc2ccccc2CN2CCN(C(=O)CNC(=O)CC3CCC(F)(F)CC3)CC2)cc1
- pIC50 (Ebolavirus [1]; Orthoebolavirus, Vero C1008): 7.30

SMILES: CS(=O)(=O)c1ccc(COc2ccc(Cl)cc2CN2CCN(C(=O)CNC(=O)CC3CCC(F)(F)CC3)CC2)cc1
- half-life at 1 µM [2]: > 2 h
- pIC50 (Ebolavirus [3]): 7.42
- remaining at 4 h, 10 µM [4]: 30%

SMILES: Nc1ccc(Cl)cc1CN1CCN(C(=O)CNC(=O)CC2CCC(F)(F)CC2)CC1
- solubility kinetic (physchem): > 100 µM
- fraction unbound at 6 h (in vitro): 0.131
- pIC50 (Ebolavirus [1]; Orthoebolavirus, Vero C1008): 6.47
- remaining at 4 h, 10 µM [4]: 94%

SMILES: [2H]C([2H])(c1cc(Cl)ccc1N)N1CCN(C(=O)CNC(=O)C2CC23CCC(F)(F)CC3)CC1 (racemic)
- pIC50 (Ebolavirus [1]; vero c1008): 7.03

SMILES: O=C(CC12CC3CC(CC(C3)C1)C2)NCC(=O)N1CCN(Cc2cc(Cl)c(F)cc2F)CC1
- pIC50 (Ebolavirus [1]; Orthoebolavirus, Vero C1008): 6.43

SMILES: COC(=O)c1ccc(COc2ccccc2CN2CCN(C(=O)CNC(=O)CC3(C)CCCCC3)CC2)cc1
- pIC50 (Ebolavirus [1]; Orthoebolavirus, Vero C1008): 7.10

SMILES: COC(=O)c1ccc(COc2ccc(Cl)cc2CN2CCN(C(=O)CNC(=O)CC34CC5CC(CC(C5)C3)C4)CC2)cc1
- pIC50 (Ebolavirus [1]; Orthoebolavirus, Vero C1008): 8.96

SMILES: NC(=O)c1ccc(COc2ccccc2CN2CCN(C(=O)CNC(=O)CC34CC5CC(CC(C5)C3)C4)CC2)cc1
- pIC50 (Ebolavirus [1]; Orthoebolavirus, Vero C1008): 6.15

SMILES: COC(=O)c1ccc(COc2ccc(C)cc2CN2CCN(C(=O)CNC(=O)CC34CC5CC(CC(C5)C3)C4)CC2)cc1
- pIC50 (Ebolavirus [1]; Orthoebolavirus, Vero C1008): 7.92

SMILES: O=C(CC12CC3CC(CC(C3)C1)C2)NCC(=O)N1CCN(Cc2cc(Br)ccc2F)CC1
- pIC50 (Ebolavirus [1]; Orthoebolavirus, Vero C1008): 5.92

SMILES: O=C(CC12CC3CC(CC(Br)(C3)C1)C2)NCC(=O)N1CCN(Cc2ccccc2OCc2ccc(Br)cc2)CC1
- pIC50 (Ebolavirus [1]; Orthoebolavirus, Vero C1008): 6.22

SMILES: NC(=O)c1ccc(Cl)cc1CN1CCN(C(=O)CNC(=O)CC23CC4CC(CC(C4)C2)C3)CC1
- pIC50 (Ebolavirus [1]; Orthoebolavirus, Vero C1008): 5.72

SMILES: COC(=O)c1ccc(/C=C/c2ccccc2CN2CCN(C(=O)CNC(=O)CC34CC5CC(CC(C5)C3)C4)CC2)cc1
- pIC50 (Ebolavirus [1]; Orthoebolavirus, Vero C1008): 5.82

SMILES: O=C(CC12CC3CC(CC(Cl)(C3)C1)C2)NCC(=O)N1CCN(Cc2ccccc2OCc2ccc(Br)cc2)CC1
- pIC50 (Ebolavirus [1]; Orthoebolavirus, Vero C1008): 6.30

SMILES: CN(C)S(=O)(=O)c1ccc(COc2ccccc2CN2CCN(C(=O)CNC(=O)CC34CC5CC(CC(C5)C3)C4)CC2)cc1
- pIC50 (Ebolavirus [1]; Orthoebolavirus, Vero C1008): 6.40

SMILES: O=C(CC12CC3CC(CC(C3)C1)C2)NCC(=O)N1CCN(Cc2cc(Br)ccc2Cl)CC1
- pIC50 (Ebolavirus [1]; Orthoebolavirus, Vero C1008): 5.66

SMILES: O=C(NCC(=O)N1CCN(Cc2cc(Cl)ccc2O)CC1)C1CC12CCC(F)(F)CC2 (racemic)
- pIC50 (Ebolavirus [1]; Orthoebolavirus, Vero C1008): 6.74

SMILES: Nc1ccc(Cl)cc1CN1CCN(C(=O)CNC(=O)C2CC23CCC(F)(F)CC3)CC1 (racemic)
- pIC50 (Ebolavirus [1]; Orthoebolavirus, Vero C1008): 7.00

SMILES: O=C(CC12CC3CC(CC(C3)C1)C2)NCC(=O)N1CCN(Cc2ccccc2OCc2ccc(-c3ncco3)cc2)CC1
- solubility kinetic (physchem): 5 µM (≈ 2.91 µg/mL)
- fraction unbound at 6 h (in vitro): 0.003
- half-life at 1 µM [5]: 1 min
- pIC50 (Ebolavirus [1]; Orthoebolavirus, Vero C1008): 6.57
- remaining at 4 h, 10 µM [4]: 37%

SMILES: Nc1ccc(Cl)cc1CN1CCN(C(=O)CNC(=O)C2CC23CCC3)CC1 (racemic)
- pIC50 (Ebolavirus [1]; Orthoebolavirus, Vero C1008): 5.60

SMILES: O=C(CC12CC3CC(CC(C3)C1)C2)NCC(=O)N1CCN(Cc2cc(Br)ccc2O)CC1
- pIC50 (Ebolavirus [1]; Orthoebolavirus, Vero C1008): 6.30

SMILES: [2H]C([2H])(c1cc(Cl)ccc1N)N1CCN(C(=O)CNC(=O)C2CC23CCC(F)(F)CC3)CC1 (single isomer, unassigned; (-))
- half-life at 1 µM [2]: 1.52 h
- pIC50 (Ebolavirus [3]): 6.79
- solubility kinetic (physchem): 78 µM (≈ 35.6 µg/mL)
- AUC(0-t) [6]: 121 µM·h
- fraction unbound at 6 h (in vitro): 0.121
- Cmax [7]: 19.5 µM
- Tmax [8]: 1.7 h
- half-life at 1 µM [5]: 3 min
- concentration [9]: 2 µM
- pIC50 (Ebolavirus [1]; vero c1008): 7.29
- half-life at 1 µM [10]: 0.267 h
- half-life [11]: 3.2 h
- remaining at 4 h, 10 µM [4]: 88%
- CL/F [12]: 15.5 mL/min/kg

SMILES: CC1(CC(=O)NCC(=O)N2CCN(Cc3ccccc3OCc3ccc(Br)cc3)CC2)CCCCC1
- pIC50 (Ebolavirus [1]; Orthoebolavirus, Vero C1008): 6.28

SMILES: O=C(CC12CC3CC(C1)CC(c1ccc(O)c([N+](=O)[O-])c1)(C3)C2)NCC(=O)N1CCN(Cc2ccccc2OCc2ccc(Br)cc2)CC1
- pIC50 (Ebolavirus [1]; Orthoebolavirus, Vero C1008): 6.22

SMILES: CC(=O)Nc1ccc(Cl)cc1CN1CCN(C(=O)CNC(=O)CC23CC4CC(CC(C4)C2)C3)CC1
- pIC50 (Ebolavirus [1]; Orthoebolavirus, Vero C1008): 6.02

SMILES: N#Cc1ccc(Br)cc1CN1CCN(C(=O)CNC(=O)CC23CC4CC(CC(C4)C2)C3)CC1
- pIC50 (Ebolavirus [1]; Orthoebolavirus, Vero C1008): 6.51

SMILES: O=C(CC12CC3CC(CC(O)(C3)C1)C2)NCC(=O)N1CCN(Cc2ccccc2OCc2ccc(Br)cc2)CC1
- pIC50 (Ebolavirus [1]; Orthoebolavirus, Vero C1008): 6.30

SMILES: O=C(CC1CCC(F)(F)CC1)NCC(=O)N1CCN(Cc2cc(Cl)ccc2O)CC1
- pIC50 (Ebolavirus [1]; Orthoebolavirus, Vero C1008): 6.33

SMILES: Nc1ccc(Cl)cc1CN1CCN(C(=O)CNC(=O)CC23CC4CC(CC(C4)C2)C3)CC1
- pIC50 (Ebolavirus [1]; Orthoebolavirus, Vero C1008): 7.05
